Columns and labels:
Assay in all cases: Post-Emergent Test III (Wheat and Barley)
[1] = tested on: VERPE (Persian speedwell); assay type: in vivo, Veronica persica; conditions: for Visual Growth Reduction (%) 21 Days After Application, VERPE: postemergence; for GR50, VERPE: effective dose for growth reduction of 50 percent; for GR50, VERPE / GR80, VERPE / GR90, VERPE: probit analysis; for GR80, VERPE: effective dose for growth reduction of 80 percent; for GR90, VERPE: effective dose for growth reduction of 90 percent
In short: (§1)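 Injury was rated visually on a 0 to 100 percent scale 21 days after treatment, relative to untreated plants, and probit analysis of multiple dose rates gave growth-reduction values. Plants at the second or third true leaf stage had been track-sprayed at 187 L/ha.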

[2] = tested on: LAMPU (purple deadnettle); assay type: in vivo, Lamium purpureum; conditions: for Visual Growth Reduction (%) 21 Days After Application, LAMPU: postemergence; for GR50, LAMPU: effective dose for growth reduction of 50 percent; for GR50, LAMPU / GR80, LAMPU / GR90, LAMPU: probit analysis; for GR80, LAMPU: effective dose for growth reduction of 80 percent; for GR90, LAMPU: effective dose for growth reduction of 90 percent
In short: as §1

[3] = tested on: KCHSC (kochia); assay type: in vivo, Kochia scoparia; conditions: for pest or weed control at 35 g/ha / pest or weed control at 70 g/ha / pest or weed control at 140 g/ha: Bassia scoparia, post-emergence, 504 h, postemergence, read-out: Visual Growth Reduction (%) 21 Days After Application, KCHSC; for pest or weed control at 35 g/ha: 35 g ai/ha; for pest or weed control at 70 g/ha: 70 g ai/ha; for pest or weed control at 140 g/ha: 140 g ai/ha; for GR50, KCHSC: effective dose for growth reduction of 50 percent; for GR50, KCHSC / GR80, KCHSC / GR90, KCHSC: probit analysis; for GR80, KCHSC: effective dose for growth reduction of 80 percent; for GR90, KCHSC: effective dose for growth reduction of 90 percent
In short: as §1

[4] = tested on: TRZSS; assay type: in vivo; conditions: for pest or weed control at 35 g/ha / pest or weed control at 70 g/ha / pest or weed control at 140 g/ha: Triticum aestivum, post-emergence, 504 h, postemergence, read-out: Visual Growth Reduction (%) 21 Days After Application, TRZSS; for pest or weed control at 35 g/ha: 35 g ai/ha; for pest or weed control at 70 g/ha: 70 g ai/ha; for pest or weed control at 140 g/ha: 140 g ai/ha; for GR10, TRZSS: effective dose for growth reduction of 10 percent; for GR10, TRZSS / GR20, TRZSS: probit analysis; for GR20, TRZSS: effective dose for growth reduction of 20 percent
In short: as §1

[5] = tested on: HORSS; assay type: in vivo; conditions: for pest or weed control at 35 g/ha / pest or weed control at 70 g/ha / pest or weed control at 140 g/ha: Hordeum vulgare, post-emergence, 504 h, postemergence, read-out: Visual Growth Reduction (%) 21 Days After Application, HORSS; for pest or weed control at 35 g/ha: 35 g ai/ha; for pest or weed control at 70 g/ha: 70 g ai/ha; for pest or weed control at 140 g/ha: 140 g ai/ha; for GR10, HORSS: effective dose for growth reduction of 10 percent; for GR10, HORSS / GR20, HORSS: probit analysis; for GR20, HORSS: effective dose for growth reduction of 20 percent
In short: as §1

[6] = tested on: PAPRH (common poppy); assay type: in vivo, Papaver rhoeas; conditions: for Visual Growth Reduction (%) 21 Days After Application, PAPRH: postemergence; for GR50, PAPRH: effective dose for growth reduction of 50 percent; for GR50, PAPRH / GR80, PAPRH / GR90, PAPRH: probit analysis; for GR80, PAPRH: effective dose for growth reduction of 80 percent; for GR90, PAPRH: effective dose for growth reduction of 90 percent
In short: as §1

[7] = tested on: SASKR (Russian thistle); assay type: in vivo, Salsola tragus; conditions: for Visual Growth Reduction (%) 21 Days After Application, SASKR: postemergence; for GR50, SASKR: effective dose for growth reduction of 50 percent; for GR50, SASKR / GR80, SASKR / GR90, SASKR: probit analysis; for GR80, SASKR: effective dose for growth reduction of 80 percent; for GR90, SASKR: effective dose for growth reduction of 90 percent
In short: as §1

[8] = tested on: APESV (windgrass); assay type: in vivo, Apera spica-venti; conditions: for pest or weed control at 35 g/ha / pest or weed control at 70 g/ha / pest or weed control at 140 g/ha: Apera spica-venti, post-emergence, 504 h, postemergence, read-out: Visual Growth Reduction (%) 21 Days After Application, APESV; for pest or weed control at 35 g/ha: 35 g ai/ha; for pest or weed control at 70 g/ha: 70 g ai/ha; for pest or weed control at 140 g/ha: 140 g ai/ha; for GR50, APESV: effective dose for growth reduction of 50 percent; for GR50, APESV / GR80, APESV / GR90, APESV: probit analysis; for GR80, APESV: effective dose for growth reduction of 80 percent; for GR90, APESV: effective dose for growth reduction of 90 percent
In short: as §1

[9] = tested on: POLCO (wild buckwheat); assay type: in vivo, Polygonum convolvulus; conditions: for Visual Growth Reduction (%) 21 Days After Application, POLCO: postemergence; for GR50, POLCO: effective dose for growth reduction of 50 percent; for GR50, POLCO / GR80, POLCO / GR90, POLCO: probit analysis; for GR80, POLCO: effective dose for growth reduction of 80 percent; for GR90, POLCO: effective dose for growth reduction of 90 percent
In short: as §1

Nc1c(F)c(-c2ccc(C(F)(F)F)nc2)nc(C(=O)O)c1Cl [Compound 46, 4-amino-5-chloro-3-fluoro-6′-(trifluoromethyl)-[2,3′-bipyridine]-6-carboxylic acid]
Visual Growth Reduction (%) 21 Days After Application, VERPE ([1]; 35 g ai/ha): A (95-100) | Visual Growth Reduction (%) 21 Days After Application, VERPE ([1]; 70 g ai/ha): A (95-100) | Visual Growth Reduction (%) 21 Days After Application, VERPE ([1]; 140 g ai/ha): A (95-100) | GR50, VERPE [1]: 1 g ai/ha | GR80, VERPE [1]: 2 g ai/ha | GR90, VERPE [1]: 8 g ai/ha | Visual Growth Reduction (%) 21 Days After Application, LAMPU ([2]; 35 g ai/ha): D (60-74) | Visual Growth Reduction (%) 21 Days After Application, LAMPU ([2]; 70 g ai/ha): D (60-74) | Visual Growth Reduction (%) 21 Days After Application, LAMPU ([2]; 140 g ai/ha): A (95-100) | GR50, LAMPU [2]: 14 g ai/ha | GR80, LAMPU [2]: 47 g ai/ha | GR90, LAMPU [2]: 89 g ai/ha | pest or weed control at 35 g/ha [3]: 60 to 74% | pest or weed control at 70 g/ha [3]: 60 to 74% | pest or weed control at 140 g/ha [3]: 85 to 94% | GR50, KCHSC [3]: 29 g ai/ha | GR80, KCHSC [3]: 104 g ai/ha | GR90, KCHSC [3]: >140 g ai/ha | pest or weed control at 35 g/ha [4]: 75 to 84% | pest or weed control at 70 g/ha [4]: 75 to 84% | pest or weed control at 140 g/ha [4]: 85 to 94% | GR10, TRZSS [4]: 1 g ai/ha | GR20, TRZSS [4]: 1 g ai/ha | pest or weed control at 35 g/ha [5]: 60 to 74% | pest or weed control at 70 g/ha [5]: 75 to 84% | pest or weed control at 140 g/ha [5]: 85 to 94% | GR10, HORSS [5]: 1 g ai/ha | GR20, HORSS [5]: 3 g ai/ha | Visual Growth Reduction (%) 21 Days After Application, PAPRH ([6]; 35 g ai/ha): A (95-100) | Visual Growth Reduction (%) 21 Days After Application, PAPRH ([6]; 70 g ai/ha): A (95-100) | Visual Growth Reduction (%) 21 Days After Application, PAPRH ([6]; 140 g ai/ha): A (95-100) | GR50, PAPRH [6]: 2 g ai/ha | GR80, PAPRH [6]: 8 g ai/ha | GR90, PAPRH [6]: 16 g ai/ha | Visual Growth Reduction (%) 21 Days After Application, SASKR ([7]; 35 g ai/ha): E (45-59) | Visual Growth Reduction (%) 21 Days After Application, SASKR ([7]; 70 g ai/ha): D (60-74) | Visual Growth Reduction (%) 21 Days After Application, SASKR ([7]; 140 g ai/ha): D (60-74) | GR50, SASKR [7]: 23 g ai/ha | GR80, SASKR [7]: >140 g ai/ha | GR90, SASKR [7]: >140 g ai/ha | pest or weed control at 35 g/ha [8]: 60 to 74% | pest or weed control at 70 g/ha [8]: 75 to 84% | pest or weed control at 140 g/ha [8]: 85 to 94% | GR50, APESV [8]: 37 g ai/ha | GR80, APESV [8]: 78 g ai/ha | GR90, APESV [8]: 115 g ai/ha | Visual Growth Reduction (%) 21 Days After Application, POLCO ([9]; 35 g ai/ha): E (45-59) | Visual Growth Reduction (%) 21 Days After Application, POLCO ([9]; 70 g ai/ha): D (60-74) | Visual Growth Reduction (%) 21 Days After Application, POLCO ([9]; 140 g ai/ha): D (60-74) | GR50, POLCO [9]: 27 g ai/ha | GR80, POLCO [9]: >140 g ai/ha | GR90, POLCO [9]: >140 g ai/ha

Cc1c(-c2cc(N)c(Cl)c(C(=O)O)n2)ccc(Cl)c1F [Compound 52]
Visual Growth Reduction (%) 21 Days After Application, VERPE ([1]; 35 g ai/ha): G (0-29) | Visual Growth Reduction (%) 21 Days After Application, VERPE ([1]; 70 g ai/ha): G (0-29) | Visual Growth Reduction (%) 21 Days After Application, VERPE ([1]; 140 g ai/ha): E (45-59) | GR50, VERPE [1]: >140 g ai/ha | GR80, VERPE [1]: >140 g ai/ha | GR90, VERPE [1]: >140 g ai/ha | Visual Growth Reduction (%) 21 Days After Application, LAMPU ([2]; 35 g ai/ha): A (95-100) | Visual Growth Reduction (%) 21 Days After Application, LAMPU ([2]; 70 g ai/ha): A (95-100) | Visual Growth Reduction (%) 21 Days After Application, LAMPU ([2]; 140 g ai/ha): A (95-100) | GR50, LAMPU [2]: <17.5 g ai/ha | GR80, LAMPU [2]: <17.5 g ai/ha | GR90, LAMPU [2]: <17.5 g ai/ha | pest or weed control at 35 g/ha [3]: 95 to 100% | pest or weed control at 70 g/ha [3]: 95 to 100% | pest or weed control at 140 g/ha [3]: 95 to 100% | GR50, KCHSC [3]: 1 g ai/ha | GR80, KCHSC [3]: 3 g ai/ha | GR90, KCHSC [3]: 9 g ai/ha | pest or weed control at 35 g/ha [4]: 60 to 74% | pest or weed control at 70 g/ha [4]: 75 to 84% | pest or weed control at 140 g/ha [4]: 75 to 84% | GR10, TRZSS [4]: 1 g ai/ha | GR20, TRZSS [4]: 1 g ai/ha | pest or weed control at 35 g/ha [5]: 60 to 74% | pest or weed control at 70 g/ha [5]: 75 to 84% | pest or weed control at 140 g/ha [5]: 85 to 94% | GR10, HORSS [5]: 1 g ai/ha | GR20, HORSS [5]: 2 g ai/ha | Visual Growth Reduction (%) 21 Days After Application, PAPRH ([6]; 35 g ai/ha): D (60-74) | Visual Growth Reduction (%) 21 Days After Application, PAPRH ([6]; 70 g ai/ha): D (60-74) | Visual Growth Reduction (%) 21 Days After Application, PAPRH ([6]; 140 g ai/ha): C (75-84) | GR50, PAPRH [6]: 4 g ai/ha | GR80, PAPRH [6]: >140 g ai/ha | GR90, PAPRH [6]: >140 g ai/ha | Visual Growth Reduction (%) 21 Days After Application, SASKR ([7]; 35 g ai/ha): D (60-74) | Visual Growth Reduction (%) 21 Days After Application, SASKR ([7]; 70 g ai/ha): D (60-74) | Visual Growth Reduction (%) 21 Days After Application, SASKR ([7]; 140 g ai/ha): C (75-84) | GR50, SASKR [7]: 1 g ai/ha | GR80, SASKR [7]: >140 g ai/ha | GR90, SASKR [7]: >140 g ai/ha | pest or weed control at 35 g/ha [8]: 60 to 74% | pest or weed control at 70 g/ha [8]: 75 to 84% | pest or weed control at 140 g/ha [8]: 85 to 94% | GR50, APESV [8]: 23 g ai/ha | GR80, APESV [8]: 63 g ai/ha | GR90, APESV [8]: 107 g ai/ha | Visual Growth Reduction (%) 21 Days After Application, POLCO ([9]; 35 g ai/ha): D (60-74) | Visual Growth Reduction (%) 21 Days After Application, POLCO ([9]; 70 g ai/ha): C (75-84) | Visual Growth Reduction (%) 21 Days After Application, POLCO ([9]; 140 g ai/ha): A (95-100) | GR50, POLCO [9]: 10 g ai/ha | GR80, POLCO [9]: 41 g ai/ha | GR90, POLCO [9]: 84 g ai/ha
